Results reported in ChEMBL document CHEMBL4507263, “Data for DCP probe BAY-474” (2021).

Columns and labels:
[1] = biological target: Calcium/calmodulin-dependent protein kinase type II subunit gamma (Homo sapiens) (UniProt Q13555); test: CaMKIIgamma (h) Millipore kinase activity assay; conditions: Compound concentration 1.0 uM
[2] = biological target: T1, Muscarinic acetylcholine receptor M1 (Homo sapiens) (UniProt P11229); conditions: Compound concentration 10.0 uM
T1 sequence (whole entry): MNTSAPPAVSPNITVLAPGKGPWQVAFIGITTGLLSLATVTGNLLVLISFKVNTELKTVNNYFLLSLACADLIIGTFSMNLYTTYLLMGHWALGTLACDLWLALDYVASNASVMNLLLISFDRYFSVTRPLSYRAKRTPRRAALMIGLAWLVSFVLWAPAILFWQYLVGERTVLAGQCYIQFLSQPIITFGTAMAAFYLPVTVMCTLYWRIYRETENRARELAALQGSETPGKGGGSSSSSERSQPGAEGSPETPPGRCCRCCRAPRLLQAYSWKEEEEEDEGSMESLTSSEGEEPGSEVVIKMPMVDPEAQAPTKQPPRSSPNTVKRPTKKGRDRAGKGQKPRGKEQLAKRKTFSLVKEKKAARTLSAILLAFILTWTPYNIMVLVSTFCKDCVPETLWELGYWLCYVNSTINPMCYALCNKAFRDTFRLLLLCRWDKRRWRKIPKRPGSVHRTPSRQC

[3] = biological target: Serine/threonine-protein kinase D2 (Homo sapiens) (UniProt Q9BZL6); test: PKD2 (h) Millipore kinase activity assay; conditions: Compound concentration 1.0 uM
[4] = biological target: Serine/threonine-protein kinase WNK3 (Homo sapiens) (UniProt Q9BYP7); test: WNK3 (h) Millipore kinase activity assay; conditions: Compound concentration 1.0 uM
[5] = biological target: Testis-specific serine/threonine-protein kinase 1 (Homo sapiens) (UniProt Q9BXA7); test: TSSK1 (h) Millipore kinase activity assay; conditions: Compound concentration 1.0 uM
[6] = biological target: Serine/threonine-protein kinase Sgk1 (Homo sapiens) (UniProt O00141); test: SGK (h) Millipore kinase activity assay; conditions: Compound concentration 1.0 uM
[7] = biological target: Mitogen-activated protein kinase kinase kinase 9 (Homo sapiens) (UniProt P80192); test: MLK1 (h) Millipore kinase activity assay; conditions: Compound concentration 1.0 uM
[8] = biological target: Cyclin-dependent kinase 5/CDK5 activator 1 (Homo sapiens) (UniProt Q00535+Q15078); test: CDK5/p35 (h) Millipore kinase activity assay; type: protein-complex assay; conditions: Compound concentration 1.0 uM
[9] = biological target: Tyrosine-protein kinase Fer (Homo sapiens) (UniProt P16591); test: Fer (h) Millipore kinase activity assay; conditions: Compound concentration 1.0 uM
[10] = biological target: Casein kinase I isoform gamma-2 (Homo sapiens) (UniProt P78368); conditions: Compound concentration 1000.0 nM
[11] = biological target: Casein kinase II subunit alpha' (Homo sapiens) (UniProt P19784); conditions: Compound concentration 1000.0 nM
[12] = biological target: Tyrosine-protein kinase Tec (Homo sapiens) (UniProt P42680); conditions: Compound concentration 1000.0 nM
[13] = biological target: SRSF protein kinase 3 (Homo sapiens) (UniProt Q9UPE1); conditions: Compound concentration 1000.0 nM
[14] = biological target: Serine/threonine-protein kinase Nek4 (Homo sapiens) (UniProt P51957); conditions: Compound concentration 1000.0 nM
[15] = biological target: Serine/threonine-protein kinase LATS1 (Homo sapiens) (UniProt O95835); conditions: Compound concentration 1000.0 nM
[16] = biological target: Tyrosine-protein kinase ABL1 (Homo sapiens) (UniProt P00519); conditions: Compound concentration 1000.0 nM
[17] = biological target: Mitogen-activated protein kinase kinase kinase 14 (Homo sapiens) (UniProt Q99558); conditions: Compound concentration 1000.0 nM
[18] = biological target: Serine/threonine-protein kinase MRCK gamma (Homo sapiens) (UniProt Q6DT37); conditions: Compound concentration 1000.0 nM
[19] = biological target: Misshapen-like kinase 1 (Homo sapiens) (UniProt Q8N4C8); conditions: Compound concentration 1000.0 nM
[20] = biological target: Ribosomal protein S6 kinase alpha-3 (Homo sapiens, UniProt P51812); conditions: Compound concentration 1000.0 nM
[21] = biological target: 3-phosphoinositide-dependent protein kinase 1 (Homo sapiens) (UniProt O15530); conditions: Compound concentration 1000.0 nM
[22] = test system: Tyrosine-protein kinase ABL1 (Homo sapiens), P00519 [E255K]; conditions: Compound concentration 1000.0 nM
[23] = test system: Tyrosine-protein kinase ABL1 (Homo sapiens), P00519 [Y253F]; conditions: Compound concentration 1000.0 nM
[24] = test system: Mast/stem cell growth factor receptor Kit (Homo sapiens), P10721 [V559D,T670I]; conditions: Compound concentration 1000.0 nM
[25] = biological target: Phosphatidylinositol 5-phosphate 4-kinase type-2 beta (Homo sapiens) (UniProt P78356); conditions: Compound concentration 1000.0 nM
[26] = biological target: Receptor tyrosine-protein kinase erbB-4 (Homo sapiens) (UniProt Q15303); conditions: Compound concentration 1000.0 nM
[27] = biological target: Serine/threonine-protein kinase tousled-like 1 (Homo sapiens) (UniProt Q9UKI8); conditions: Compound concentration 1000.0 nM
[28] = biological target: Mitogen-activated protein kinase kinase kinase 20 (Homo sapiens) (UniProt Q9NYL2); conditions: Compound concentration 1000.0 nM
[29] = biological target: Mitogen-activated protein kinase kinase kinase 4 (Homo sapiens) (UniProt Q9Y6R4); conditions: Compound concentration 1000.0 nM
[30] = biological target: Myosin light chain kinase family member 4 (Homo sapiens) (UniProt Q86YV6); conditions: Compound concentration 1000.0 nM
[31] = test system: Phosphatidylinositol 4,5-bisphosphate 3-kinase catalytic subunit alpha isoform (Homo sapiens), P42336 [H1047Y]; conditions: Compound concentration 1000.0 nM
[32] = biological target: Activin receptor type-2A (Homo sapiens) (UniProt P27037); conditions: Compound concentration 1000.0 nM
[33] = biological target: Tyrosine-protein kinase ITK/TSK (Homo sapiens) (UniProt Q08881); conditions: Compound concentration 1000.0 nM
[34] = biological target: Serine/threonine-protein kinase 32A (Homo sapiens) (UniProt Q8WU08); conditions: Compound concentration 1000.0 nM
[35] = biological target: Dual specificity protein kinase TTK (Homo sapiens) (UniProt P33981); conditions: Compound concentration 1000.0 nM
[36] = biological target: Tyrosine-protein kinase SYK (Homo sapiens) (UniProt P43405); conditions: Compound concentration 1000.0 nM

Sequence of Ribosomal protein S6 kinase alpha-3 (P51812 whole entry): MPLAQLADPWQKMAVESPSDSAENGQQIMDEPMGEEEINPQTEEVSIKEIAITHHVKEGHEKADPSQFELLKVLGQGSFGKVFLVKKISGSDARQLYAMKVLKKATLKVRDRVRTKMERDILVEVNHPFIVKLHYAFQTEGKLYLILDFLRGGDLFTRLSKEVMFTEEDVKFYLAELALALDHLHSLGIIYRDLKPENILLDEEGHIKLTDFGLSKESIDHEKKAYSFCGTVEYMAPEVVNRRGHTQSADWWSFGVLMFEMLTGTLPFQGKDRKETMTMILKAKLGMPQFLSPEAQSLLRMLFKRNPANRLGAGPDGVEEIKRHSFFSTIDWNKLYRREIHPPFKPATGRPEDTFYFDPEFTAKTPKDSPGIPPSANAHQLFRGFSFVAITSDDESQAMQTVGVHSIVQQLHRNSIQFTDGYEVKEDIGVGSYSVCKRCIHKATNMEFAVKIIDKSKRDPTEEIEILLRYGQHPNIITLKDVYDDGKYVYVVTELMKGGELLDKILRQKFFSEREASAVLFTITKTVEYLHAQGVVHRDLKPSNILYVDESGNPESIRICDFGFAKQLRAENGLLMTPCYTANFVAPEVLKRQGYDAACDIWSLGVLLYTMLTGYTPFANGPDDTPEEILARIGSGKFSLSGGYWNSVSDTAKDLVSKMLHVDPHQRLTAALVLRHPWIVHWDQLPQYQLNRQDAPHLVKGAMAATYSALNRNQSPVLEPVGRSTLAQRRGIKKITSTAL
Sequence of Tyrosine-protein kinase ITK/TSK (Homo sapiens) (Q08881 whole entry): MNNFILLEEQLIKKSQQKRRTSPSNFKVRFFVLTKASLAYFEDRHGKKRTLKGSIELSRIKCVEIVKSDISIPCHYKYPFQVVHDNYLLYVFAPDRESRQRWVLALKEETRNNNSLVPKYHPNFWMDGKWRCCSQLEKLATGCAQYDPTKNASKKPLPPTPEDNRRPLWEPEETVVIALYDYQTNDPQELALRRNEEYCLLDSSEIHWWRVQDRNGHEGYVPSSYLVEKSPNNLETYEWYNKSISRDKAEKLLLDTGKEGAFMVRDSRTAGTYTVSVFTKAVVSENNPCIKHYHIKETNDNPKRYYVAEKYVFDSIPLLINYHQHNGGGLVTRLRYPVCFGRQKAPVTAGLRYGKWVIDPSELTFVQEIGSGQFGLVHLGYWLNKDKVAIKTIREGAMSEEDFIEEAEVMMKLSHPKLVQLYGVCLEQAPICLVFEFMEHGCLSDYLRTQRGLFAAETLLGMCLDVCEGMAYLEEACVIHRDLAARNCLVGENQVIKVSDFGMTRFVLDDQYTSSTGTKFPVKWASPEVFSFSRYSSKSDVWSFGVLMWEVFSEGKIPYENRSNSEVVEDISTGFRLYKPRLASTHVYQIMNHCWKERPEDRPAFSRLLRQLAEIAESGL
Sequence of Testis-specific serine/threonine-protein kinase 1 (Homo sapiens) (Q9BXA7 whole entry): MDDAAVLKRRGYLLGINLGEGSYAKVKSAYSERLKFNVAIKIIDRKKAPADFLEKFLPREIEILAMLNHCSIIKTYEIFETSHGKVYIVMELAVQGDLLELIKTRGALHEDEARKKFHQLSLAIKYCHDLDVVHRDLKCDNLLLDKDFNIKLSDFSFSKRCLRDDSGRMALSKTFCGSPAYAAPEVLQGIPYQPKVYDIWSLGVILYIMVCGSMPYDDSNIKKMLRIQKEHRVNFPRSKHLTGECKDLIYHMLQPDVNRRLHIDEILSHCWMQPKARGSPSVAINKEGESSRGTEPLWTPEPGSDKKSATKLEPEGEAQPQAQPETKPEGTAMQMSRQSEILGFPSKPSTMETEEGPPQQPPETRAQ
Sequence of SRSF protein kinase 3 (Homo sapiens) (Q9UPE1 whole entry): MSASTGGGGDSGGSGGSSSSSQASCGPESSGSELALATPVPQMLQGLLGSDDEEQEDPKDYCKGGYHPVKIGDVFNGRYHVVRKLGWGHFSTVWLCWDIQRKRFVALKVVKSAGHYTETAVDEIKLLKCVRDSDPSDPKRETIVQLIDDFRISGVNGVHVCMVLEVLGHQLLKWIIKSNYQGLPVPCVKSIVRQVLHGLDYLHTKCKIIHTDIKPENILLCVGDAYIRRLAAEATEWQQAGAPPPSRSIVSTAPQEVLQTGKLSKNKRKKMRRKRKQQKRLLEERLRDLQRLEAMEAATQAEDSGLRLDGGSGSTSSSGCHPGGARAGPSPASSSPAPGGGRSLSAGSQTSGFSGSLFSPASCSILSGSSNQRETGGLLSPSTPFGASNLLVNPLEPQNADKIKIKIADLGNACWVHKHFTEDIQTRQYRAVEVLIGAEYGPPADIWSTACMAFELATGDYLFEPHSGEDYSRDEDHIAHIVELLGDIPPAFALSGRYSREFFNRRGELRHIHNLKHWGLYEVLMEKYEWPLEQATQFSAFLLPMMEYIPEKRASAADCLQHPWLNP
Sequence of Mitogen-activated protein kinase kinase kinase 9 (Homo sapiens) (P80192 whole entry, looked up): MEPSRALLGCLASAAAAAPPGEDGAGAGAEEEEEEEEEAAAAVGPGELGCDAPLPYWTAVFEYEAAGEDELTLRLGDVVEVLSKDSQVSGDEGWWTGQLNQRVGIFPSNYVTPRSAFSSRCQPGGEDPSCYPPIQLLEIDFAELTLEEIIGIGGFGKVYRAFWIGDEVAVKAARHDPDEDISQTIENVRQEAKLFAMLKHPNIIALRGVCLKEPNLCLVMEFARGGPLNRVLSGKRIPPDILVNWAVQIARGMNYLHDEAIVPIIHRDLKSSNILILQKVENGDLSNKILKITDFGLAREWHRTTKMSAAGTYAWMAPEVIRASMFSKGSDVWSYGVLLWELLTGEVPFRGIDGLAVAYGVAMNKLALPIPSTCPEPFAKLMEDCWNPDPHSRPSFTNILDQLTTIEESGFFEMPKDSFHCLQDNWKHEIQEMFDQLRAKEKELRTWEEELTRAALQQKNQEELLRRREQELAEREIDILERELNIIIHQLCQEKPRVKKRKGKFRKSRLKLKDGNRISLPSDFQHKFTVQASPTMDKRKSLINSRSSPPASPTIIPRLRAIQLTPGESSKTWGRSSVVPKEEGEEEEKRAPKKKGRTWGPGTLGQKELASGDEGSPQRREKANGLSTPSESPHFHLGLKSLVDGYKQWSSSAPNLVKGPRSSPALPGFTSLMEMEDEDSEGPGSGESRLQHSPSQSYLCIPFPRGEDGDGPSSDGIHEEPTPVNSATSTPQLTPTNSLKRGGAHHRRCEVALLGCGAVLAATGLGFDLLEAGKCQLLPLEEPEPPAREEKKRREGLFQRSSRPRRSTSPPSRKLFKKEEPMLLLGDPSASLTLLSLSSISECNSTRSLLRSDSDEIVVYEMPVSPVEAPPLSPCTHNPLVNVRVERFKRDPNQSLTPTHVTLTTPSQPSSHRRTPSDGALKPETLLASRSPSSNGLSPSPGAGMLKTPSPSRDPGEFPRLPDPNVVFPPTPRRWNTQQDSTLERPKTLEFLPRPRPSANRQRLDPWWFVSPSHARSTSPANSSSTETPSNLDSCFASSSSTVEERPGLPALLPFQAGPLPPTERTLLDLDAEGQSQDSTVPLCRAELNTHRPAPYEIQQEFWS
Sequence of Receptor tyrosine-protein kinase erbB-4 (Homo sapiens) (Q15303 whole entry): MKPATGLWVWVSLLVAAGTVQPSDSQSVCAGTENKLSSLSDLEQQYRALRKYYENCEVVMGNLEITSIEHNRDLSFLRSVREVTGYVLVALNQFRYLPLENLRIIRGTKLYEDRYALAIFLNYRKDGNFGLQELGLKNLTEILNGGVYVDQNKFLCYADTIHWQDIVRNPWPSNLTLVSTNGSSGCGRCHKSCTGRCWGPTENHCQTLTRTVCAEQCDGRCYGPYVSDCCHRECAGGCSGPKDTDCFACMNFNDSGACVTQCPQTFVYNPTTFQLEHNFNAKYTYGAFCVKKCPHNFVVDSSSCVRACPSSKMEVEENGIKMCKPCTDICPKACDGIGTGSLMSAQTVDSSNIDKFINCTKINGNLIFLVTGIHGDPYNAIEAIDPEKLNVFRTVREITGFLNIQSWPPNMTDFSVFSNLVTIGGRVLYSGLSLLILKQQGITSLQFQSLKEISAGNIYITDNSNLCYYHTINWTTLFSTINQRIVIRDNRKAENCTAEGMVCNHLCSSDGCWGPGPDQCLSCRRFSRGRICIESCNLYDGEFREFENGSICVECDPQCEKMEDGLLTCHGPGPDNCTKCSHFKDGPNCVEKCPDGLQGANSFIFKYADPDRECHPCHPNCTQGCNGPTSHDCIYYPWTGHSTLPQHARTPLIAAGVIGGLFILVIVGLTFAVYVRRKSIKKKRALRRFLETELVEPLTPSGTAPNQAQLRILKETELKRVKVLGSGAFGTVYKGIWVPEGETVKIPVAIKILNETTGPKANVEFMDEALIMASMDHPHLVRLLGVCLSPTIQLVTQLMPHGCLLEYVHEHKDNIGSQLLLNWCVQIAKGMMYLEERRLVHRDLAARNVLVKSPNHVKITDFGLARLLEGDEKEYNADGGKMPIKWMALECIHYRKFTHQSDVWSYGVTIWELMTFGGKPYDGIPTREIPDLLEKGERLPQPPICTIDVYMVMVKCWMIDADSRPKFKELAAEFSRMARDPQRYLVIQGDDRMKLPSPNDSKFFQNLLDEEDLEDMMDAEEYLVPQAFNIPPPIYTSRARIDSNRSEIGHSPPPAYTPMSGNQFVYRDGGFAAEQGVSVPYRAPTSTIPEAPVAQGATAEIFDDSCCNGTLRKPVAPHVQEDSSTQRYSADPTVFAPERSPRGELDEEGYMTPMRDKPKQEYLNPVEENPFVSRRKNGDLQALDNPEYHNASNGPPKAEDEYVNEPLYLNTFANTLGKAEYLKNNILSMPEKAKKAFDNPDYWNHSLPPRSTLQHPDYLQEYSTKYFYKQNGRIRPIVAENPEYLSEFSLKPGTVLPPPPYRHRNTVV
Sequence of Casein kinase II subunit alpha' (Homo sapiens) (P19784 whole entry, looked up): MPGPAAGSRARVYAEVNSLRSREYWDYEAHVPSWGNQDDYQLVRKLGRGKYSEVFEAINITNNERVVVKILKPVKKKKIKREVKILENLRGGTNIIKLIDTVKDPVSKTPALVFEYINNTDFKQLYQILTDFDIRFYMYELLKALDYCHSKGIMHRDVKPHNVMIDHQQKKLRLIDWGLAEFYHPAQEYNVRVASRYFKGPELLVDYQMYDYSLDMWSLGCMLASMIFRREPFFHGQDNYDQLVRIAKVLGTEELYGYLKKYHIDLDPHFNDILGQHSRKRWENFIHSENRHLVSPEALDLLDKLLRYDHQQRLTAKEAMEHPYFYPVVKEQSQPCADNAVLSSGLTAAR

`CC1=C(C#N)C(c2ccc3[nH]nc(C)c3c2)C(C#N)=C(C)N1` [BAY-474] was tested, and the inhibition [1] was 2%, the inhibition [2] was 0% and the inhibition [3] was 3%. The inhibition [4] was -5%, the inhibition [5] was 27% and the inhibition [6] was -2%. It also gave an inhibition [7] of -1%, an inhibition [8] of -1% and an inhibition [9] of 22%.

For `CC1=C(C#N)[C@@H](c2ccc3[nH]nc(C)c3c2)C(C#N)=C(c2ccc(Cl)cc2)N1` [BAY-827], the residual activity [10] was 100%, the residual activity [11] was 100% and the residual activity [12] was 100%. It also gave a residual activity [13] of 100%, a residual activity [14] of 90.1% and a residual activity [15] of 100%. For the same compound, the residual activity [16] was 82.9%, the residual activity [17] was 100% and the residual activity [18] was 93.6%. The residual activity [19] was 77%, the residual activity [20] was 86.2% and the residual activity [21] was 98.2%. It also gave a residual activity [22] of 83.5%, a residual activity [23] of 100% and a residual activity [24] of 84.4%. It also gave a residual activity [25] of 69.3%, a residual activity [26] of 100% and a residual activity [27] of 100%. For the same compound, the residual activity [28] was 93.6%, the residual activity [29] was 67.9% and the residual activity [30] was 100%. For the same compound, the residual activity [31] was 35.8%, the residual activity [32] was 100% and the residual activity [33] was 97.2%. The residual activity [34] was 100%, the residual activity [35] was 75.7% and the residual activity [36] was 100%.
